The structures appear in SMILES notation. “Also recorded” adds a separate entry of the source.

The test system of series [1] is differentiated SH-SY-5Y cells. As to the kind of experiment: Intracellular ROS by DCFD fluorescence in differentiated SH-SY-5Y cells. The format is cell-based, human. The note with it: for increase in ROS resulting from folate deprivation: simultaneously with folate deprivation. The procedure:
Cultured cells were used to test individual agents and formulations. In general, SH-SY-5Y human neuroblastoma cells were cultured in DMEM (Cellgro) containing 10% fetal bovine serum in 5% CO2.
For treatments with Abeta, differentiated cultures were transferred to medium without serum and treated for two hours with 20 μM Abeta25-35 (Sigma Chemical Co., St. Louis, Mo.). […] Louis, Mo.). In experiments calling for treatment of cell cultures with N-acetyl cysteine (NAC; NALC), cultures were treated with 10 mM NAC (Sigma Chemical Co., St. Louis, Mo.) after the culture was grown for two hours in serum-free medium.
Intracellular reactive oxygen species (ROS) were monitored as described in Ekinci et al., 1999 (J. Biol. Chem., 274:30322-30327). Briefly, cells were incubated for 30 minutes with dichloro-fluorescein diacetate (DCFD; acetoxymethyl ester; Molecular Probes, Inc., Eugene, Oreg.), which is used to detect intracellular peroxide levels. Incubation was followed by rinsing of cultures in serum-free medium and immediate capture of images using UV optics. Images were captured under epifluorescent and phase-contrast illumination using a DAGE CCL-72 cooled CCD camera via a Scion LG-3 frame grabber operated by NIH Image (see the Internet at rsb.info.nih.gov/nih-image). Images were then stored as PICT files on a Macintosh Power PC 7100AV for subsequent analysis. At least 100 cells in randomly-selected fields from duplicate cultures derived from multiple experiments were scored for fluorescent intensity using NIH Image analysis software. Representative background areas devoid of cells were similarly analyzed and subtracted from cell values to yield net densitometric values. All fields for each individual assay were illuminated, captured, and processed under identical settings. Corresponding phase-contrast images were obtained. Cell aggregates were excluded from the assays; only individual cells were quantified. Values were exported to Excel for statistical analyses using Student's t test.
For monitoring of intracellular peroxide concentrations as an index of ROS, cultures received 10 μl/ml DFCD (2′7′-dichlorofluorescein diacetate; Kodak) for 20 minutes. Cultures were then visualized under fluorescein UV optics (perikaryon; Ekinci and Shea, 1999, supra).

The test system of series [2] is SH-SY-5Y cells. As to the kind of experiment: HPLC of homocysteine in SH-SY-5Y cell lysates and medium. The format is cell-based, human. The note with it: 25 μM DZA during folate deprivation. How it is done:
(§1) Glutathione levels were quantified in homogenates of SH-SY-5Y cells. Cultures were rinsed twice with Tris-buffered saline (TBS), scraped from the plate in a small volume of TBS and homogenized on ice. Medium was also utilized for analysis of HCY along with cellular lysates, since HCY is normally exported from cells. Homogenates (100 μl) were reduced by mixing with 50 μl of 100 μM N-acetylcysteine or with 30 μl of 30 μM cystamine (as an internal standard) and 10 μl of tri-carboxyethylphosphine (100 mg/ml in 0.05 M HCl). Samples were vortexed, incubated at room temperature for 30 minutes, then centrifuged at 10,000×g for 10 minutes. 80 μl of the resulting supernatant were combined with 160 μl of 2 M boric acid/4 mM EDTA (pH 10.5), followed by 80 μl of 1.0 mg/ml SBDF [7-fluorobenzo-2-oxa-1,3-diazole-4-sulfonate] in boric acid/EDTA buffer). Samples were mixed, incubated for 60 minutes at 60° C., equilibrated to reach temperature, and 50 μl of the sample was then injected into a Hewlett Packard model 1090 HPLC, which is used with a 1046A fluorescence detector and a Hewlett Packard 4.6×60 mm high-speed analytical column packed with 3 μM ODs (C18) Hypersil silica. The mobile phase consisted of methanol/0.2 M acetate buffer pH 4.0 (2/98 by volume). Glutathione concentrations were then determined by comparison of peak area ratios of glutathione to the internal standard N-acetylcysteine in the sample compared to peak areas obtained for a glutathione standard curve. Samples were derived from 3-4 normal and 3-4 ApoE−/− mice for each dietary condition, from ≧2 independent experiments (total n≧6 for each diet for both experiments).
Medium was then decanted, cells were scraped from the plate and homogenized, and medium and cellular lysates, along with an aliquot of fresh medium that had not been in contact with cells, were subjected to HPLC analyses.

For series [3], the system named is SH-SY-5Y cells. Kind of series: Homocysteine-induced apoptosis, meracyanine staining of externalized PS. It counts as cell-based, human. How it is done: FIG. 20 is a bar graph that depicts the results of experiments in which […] were treated with 250 μM homocysteine with or without 100 μM SAM, after which cultures were monitored for externalized PS via meracyanine staining as an indication of apoptosis. Values represent the mean (±standard error of the mean) in arbitrary densitometric units derived from densitometric analyses of 10-50 neurons from two cultures under each condition from two separate independent experiments.
Levels of externalized phosphatidylserine (PS) were used as a measure of apoptosis (Rimon et al., 1997, J. Neurosci. Res., 48:563-570). Briefly, cultures were subjected to treatments then rinsed with PBS and incubated with 10 μl/ml merocyanine (Upstate Biotech, Lake Placid, N.Y.), followed by examination under rhodamine optics (Ekinci et al, 1999, J. Biol. Chem., 274:30322-30327).
Homocysteine induces apoptosis in cultured cells. To investigate the effect of SAM on HC-induced apoptosis, 100 μM SAM and homocysteine were added to cultured SH-SY-5Y cells and apoptosis was monitored by meracyanine staining to detect the externalization of PS.

For series [4] the following is noted: reported; cited from earlier work.
Series [5] concerns SH-SY-5Y cells. Kind of series: HPLC analysis of glutathione and thiols in SH-SY-5Y cells. The note with it: NAC treatment in the absence of folate. It counts as cell-based, human. How it is done: as §1
NAC directly scavenges ROS and also provide a source of intracellular cysteine for synthesis of glutathione during conditions of oxidative stress. […] Differentiated SH-SY-5Y cells with and without NAC treatment were subjected to HPLC along with 50 μM each of multiple thiol standards (“Standards”) as indicated in FIGS. 18A to 18C.

[6] abbreviates: no folate + 25 μM DZA, two hours.

Consider `Nc1nccc2c1ncn2[C@@H]1O[C@H](CO)[C@@H](O)[C@H]1O` [DZA, 3-deazaadenosine], for which the “attenuation of the increase in ROS from folate deprivation” value in series [1] (25 μM DZA during folate deprivation) is “approximately 50%”. Also, the “attenuation of the increase in ROS from folate deprivation” value in series [1] (25 μM DZA simultaneously with folate deprivation) was “attenuated the increase in ROS by slightly more than half”. Besides, in series [1] (setting [6]), the “ROS % increase vs. control” value was 16% and the “ROS Mean ± SEM” value was 8.8 ± 0.3. In series [2], the “HCY formation and export” value is “prevented HCY formation and export to a level below that observed in cultures receiving folate”.

In the case of `N[C@@H](CCS)C(=O)O` [Homocysteine, homocysteine], in series [3] (homocysteine, 2 and 24 hours), the “externalization of PS” value was “progressively induced externalization of PS”.

Take `CC(=O)N[C@@H](CS)C(=O)O` [NAC, N-acetyl cysteine]: in series [1] (1 mM NAC, two hours), the “increase in ROS resulting from folate deprivation” value is recorded as “prevented the increase in ROS”. Further, in series [1] (10 mM NAC, two hours), the “increase in ROS resulting from folate deprivation” value is recorded as “prevented the increase in ROS”. Also, the “ROS induced by Abeta” value in series [1] (NAC (10 mM) applied 15 minutes after Abeta) is recorded as “quenched ROS”. Further, in series [4], the “entry into the CNS” value is “reported to enter or have effects in the CNS”. In series [5], the “intracellular cysteine (HPLC)” value is on record as “marked increase” and the “intracellular glutathione (HPLC)” value is listed as “marked increase”.

As for `C[S+](CC[C@H](N)C(=O)O)C[C@H]1O[C@@H](n2cnc3c(N)ncnc32)[C@H](O)[C@@H]1O` (stereo partly shown) [SAM, S-adenosyl methionine], in series [3] (100 μM SAM, 2 hours), the “homocysteine-induced PS externalization” value was “prevented PS externalization”. In addition, the “reduction of homocysteine-induced PS externalization” value in series [3] (100 μM SAM, 24 hours) is on record as “approximately 50%”. In addition, in series [1] (100 μM SAM, two hours), the “increase in ROS generated by folate deprivation” value is reported as “attenuation of the increase in ROS; also recorded: reduced ROS levels to a greater extent than did incubation of cells in the presence of folate”. Moreover, the “entry into the CNS” value in series [4] is “reported to enter or have effects in the CNS”.
